# Measured values as given in ChEMBL document CHEMBL3885861, “Open TG-GATES”.
# Species: Rattus norvegicus
# Test: Open TG-GATES - Regimen: Single
# Format: toxicity, organism-based, Sprague-Dawley
# Design: regimen Single, gender Male, age 6 weeks
# Settings: in vivo, po, 0 mg/kg, route gavage, dose level Control; for APTT / Bas / Eos / Fbg / Hb / Ht / Lym / MCH / MCHC / MCV / Mono / Neu / PT / Plat / RBC / Ret / WBC: tissue Blood; for KIDNEY_L / KIDNEY_R / KIDNEY_TOTAL: tissue Kidney; for LIVER: tissue Liver; for A/G / ALP / ALT / AST / BUN / CRE / Ca / Cl / DBIL / GLC / IP / K / LDH / Na / PL / RALB / TBIL / TC / TG / TP / gamma-GTP: tissue Plasma
smiles,measurement,setting,value
C[C@H]1O[C@H](O[C@H]2[C@H](O)[C@@H](O)[C@@H](O[C@H]3[C@H](O)[C@@H](O)C(O)O[C@@H]3CO)O[C@@H]2CO)[C@H](O)[C@@H](O)[C@@H]1N[C@H]1C=C(CO)[C@@H](O)[C@H](O)[C@H]1O (some centres not stated) [ACARBOSE],TERMINAL_BW,3 h,196.9 g
same,APTT,3 h,16.9 s
same,Bas,3 h,0.2%
same,Eos,3 h,0.8%
same,Fbg,3 h,275 mg/dL
same,Hb,3 h,13.4 g/dL
same,Ht,3 h,41.3%
same,Lym,3 h,78.6%
same,MCH,3 h,20.8 pg
same,MCHC,3 h,32.6%
same,MCV,3 h,63.7 fL
same,Mono,3 h,2.6%
same,Neu,3 h,16.8%
same,PT,3 h,13.6 s
same,Plat,3 h,116.5 x10_4/uL
same,RBC,3 h,647.8 x10_4/ul
same,Ret,3 h,8.1%
same,WBC,3 h,97.1 x10_2/uL
same,KIDNEY_L,3 h,0.9 g
same,KIDNEY_R,3 h,0.9 g
same,KIDNEY_TOTAL,3 h,1.8 g
same,LIVER,3 h,8.8 g
same,A/G,3 h,0.9
same,ALP,3 h,1499.8 IU/L
same,ALT,3 h,36 IU/L
same,AST,3 h,72.6 IU/L
same,BUN,3 h,10.4 mg/dL
same,CRE,3 h,0.2 mg/dL
same,Ca,3 h,10.7 mg/dL
same,Cl,3 h,105.2 meq/L
same,DBIL,3 h,0.006 mg/dL
same,GLC,3 h,174.6 mg/dL
same,IP,3 h,9.5 mg/dL
same,K,3 h,4 meq/L
same,LDH,3 h,58.2 IU/L
same,Na,3 h,141.4 meq/L
same,PL,3 h,133 mg/dL
same,RALB,3 h,2.5 g/dL
same,TBIL,3 h,0.06 mg/dL
same,TC,3 h,73.6 mg/dL
same,TG,3 h,46.8 mg/dL
same,TP,3 h,5.2 g/dL
same,gamma-GTP,3 h,1 IU/L
same,TERMINAL_BW,6 h,197.1 g
same,APTT,6 h,17.2 s
same,Bas,6 h,0.2%
same,Eos,6 h,0.6%
same,Fbg,6 h,286 mg/dL
same,Hb,6 h,13.2 g/dL
same,Ht,6 h,40.8%
same,Lym,6 h,73.6%
same,MCH,6 h,21 pg
same,MCHC,6 h,32.3%
same,MCV,6 h,64.9 fL
same,Mono,6 h,2.6%
same,Neu,6 h,22.4%
same,PT,6 h,13.7 s
same,Plat,6 h,125.4 x10_4/uL
same,RBC,6 h,629.8 x10_4/ul
same,Ret,6 h,8.4%
same,WBC,6 h,74.2 x10_2/uL
same,KIDNEY_L,6 h,0.9 g
same,KIDNEY_R,6 h,0.9 g
same,KIDNEY_TOTAL,6 h,1.9 g
same,LIVER,6 h,8.2 g
same,A/G,6 h,0.9
same,ALP,6 h,1467.2 IU/L
same,ALT,6 h,35.2 IU/L
same,AST,6 h,72.2 IU/L
same,BUN,6 h,8.8 mg/dL
same,CRE,6 h,0.2 mg/dL
same,Ca,6 h,10.5 mg/dL
same,Cl,6 h,104.6 meq/L
same,DBIL,6 h,0.004 mg/dL
same,GLC,6 h,166 mg/dL
same,IP,6 h,10.4 mg/dL
same,K,6 h,3.7 meq/L
same,LDH,6 h,65 IU/L
same,Na,6 h,141.6 meq/L
same,PL,6 h,136.8 mg/dL
same,RALB,6 h,2.5 g/dL
same,TBIL,6 h,0.064 mg/dL
same,TC,6 h,73.4 mg/dL
same,TG,6 h,72.4 mg/dL
same,TP,6 h,5.2 g/dL
same,gamma-GTP,6 h,1.4 IU/L
same,TERMINAL_BW,9 h,198.4 g
same,APTT,9 h,18.3 s
same,Bas,9 h,0%
same,Eos,9 h,0.8%
same,Fbg,9 h,306.6 mg/dL
same,Hb,9 h,13.2 g/dL
same,Ht,9 h,40.7%
same,Lym,9 h,75.2%
same,MCH,9 h,20.9 pg
same,MCHC,9 h,32.3%
same,MCV,9 h,64.8 fL
same,Mono,9 h,1.8%
same,Neu,9 h,21%
same,PT,9 h,13.6 s
same,Plat,9 h,122.9 x10_4/uL
same,RBC,9 h,629.4 x10_4/ul
same,Ret,9 h,8.4%
same,WBC,9 h,90.2 x10_2/uL
same,KIDNEY_L,9 h,0.9 g
same,KIDNEY_R,9 h,0.9 g
same,KIDNEY_TOTAL,9 h,1.8 g
same,LIVER,9 h,8.1 g
same,A/G,9 h,0.9
same,ALP,9 h,1467.6 IU/L
same,ALT,9 h,35.2 IU/L
same,AST,9 h,69.4 IU/L
same,BUN,9 h,8.6 mg/dL
same,CRE,9 h,0.2 mg/dL
same,Ca,9 h,10.4 mg/dL
same,Cl,9 h,104.2 meq/L
same,DBIL,9 h,0.006 mg/dL
same,GLC,9 h,177.8 mg/dL
same,IP,9 h,10.2 mg/dL
same,K,9 h,3.9 meq/L
same,LDH,9 h,63.8 IU/L
same,Na,9 h,140.8 meq/L
same,PL,9 h,133.6 mg/dL
same,RALB,9 h,2.5 g/dL
same,TBIL,9 h,0.06 mg/dL
same,TC,9 h,73.6 mg/dL
same,TG,9 h,52.4 mg/dL
same,TP,9 h,5.2 g/dL
same,gamma-GTP,9 h,1.2 IU/L
same,TERMINAL_BW,24 h,211.4 g
same,APTT,24 h,19.4 s
same,Bas,24 h,0%
same,Eos,24 h,1%
same,Fbg,24 h,269.6 mg/dL
same,Hb,24 h,13.2 g/dL
same,Ht,24 h,40.1%
same,Lym,24 h,73.6%
same,MCH,24 h,20.7 pg
same,MCHC,24 h,32.8%
same,MCV,24 h,63 fL
same,Mono,24 h,3.2%
same,Neu,24 h,21.4%
same,PT,24 h,13.1 s
same,Plat,24 h,113.4 x10_4/uL
same,RBC,24 h,636.6 x10_4/ul
same,Ret,24 h,7.9%
same,WBC,24 h,81.7 x10_2/uL
same,KIDNEY_L,24 h,1 g
same,KIDNEY_R,24 h,0.9 g
same,KIDNEY_TOTAL,24 h,1.9 g
same,LIVER,24 h,9.8 g
same,A/G,24 h,0.9
same,ALP,24 h,1381.8 IU/L
same,ALT,24 h,42.2 IU/L
same,AST,24 h,71.6 IU/L
same,BUN,24 h,14.2 mg/dL
same,CRE,24 h,0.2 mg/dL
same,Ca,24 h,10.7 mg/dL
same,Cl,24 h,103.8 meq/L
same,DBIL,24 h,0.006 mg/dL
same,GLC,24 h,175.8 mg/dL
same,IP,24 h,8.3 mg/dL
same,K,24 h,3.9 meq/L
same,LDH,24 h,60.8 IU/L
same,Na,24 h,141.4 meq/L
same,PL,24 h,139.8 mg/dL
same,RALB,24 h,2.5 g/dL
same,TBIL,24 h,0.062 mg/dL
same,TC,24 h,78 mg/dL
same,TG,24 h,59.2 mg/dL
same,TP,24 h,5.3 g/dL
same,gamma-GTP,24 h,1 IU/L
